Legend:
[1] = (§1) The drug is tested on Z-006 corresponding to mouse gut metagenome with ENA study accession number: PRJEB37062 and ENA sample accession number: ERS12561806 for biotransformation under anaerobic condition. The drug concentrations were measured over 9 timepoints collected between 0 and 24 hours of incubation by liquid-chromatography-coupled mass spectrometry (LC–MS); settings: 2 µM
[2] = human gut metagenome, 24 h, 2 µM
[3] = as §1, with “Z-021” for “Z-006”, “to” for “to mouse gut”, “ERS12561820” for “ERS12561806”; settings: 2 µM
[4] = human gut metagenome, 24 h, 2 µM; remark: listed apart in the source
[5] = as §1, with “WLS-038” for “Z-006”, “human” for “mouse”, “ERS12561745” for “ERS12561806”; settings: 2 µM
[6] = as §1, with “Z-010” for “Z-006”, “to” for “to mouse gut”, “ERS12561810” for “ERS12561806”; settings: 2 µM
[7] = human gut metagenome, 24 h, 2 µM; remark: listed apart in the source
[8] = as §1, with “WLS-007” for “Z-006”, “human” for “mouse”, “ERS12561742” for “ERS12561806”; settings: 2 µM
[9] = as §1, with “WLS-350” for “Z-006”, “human” for “mouse”, “ERS12561789” for “ERS12561806”; settings: 2 µM
[10] = as §1, with “WLS-170” for “Z-006”, “human” for “mouse”, “ERS12561762” for “ERS12561806”; settings: 2 µM
[11] = as §1, with “Z-018” for “Z-006”, “pig” for “mouse”, “ERS12561817” for “ERS12561806”; settings: 2 µM
[12] = human gut metagenome, 24 h, 2 µM; remark: listed apart in the source
[13] = human gut metagenome, 24 h, 2 µM; remark: listed apart in the source
[14] = as §1, with “Z-023” for “Z-006”, “to” for “to mouse gut”, “ERS12561822” for “ERS12561806”; settings: 2 µM
[15] = human gut metagenome, 24 h, 2 µM; remark: listed apart in the source
[16] = as §1, with “Z-016” for “Z-006”, “ERS12561815” for “ERS12561806”; settings: 2 µM
[17] = as §1, with “Z-008” for “Z-006”, “to” for “to mouse gut”, “ERS12561808” for “ERS12561806”; settings: 2 µM
[18] = as §1, with “Z-027” for “Z-006”, “to” for “to mouse gut”, “ERS12561826” for “ERS12561806”; settings: 2 µM
[19] = human gut metagenome, 24 h, 2 µM; remark: listed apart in the source
[20] = as §1, with “Z-020” for “Z-006”, “rabbit” for “mouse”, “ERS12561819” for “ERS12561806”; settings: 2 µM
Note: call rule not given here.

Row | Structure (SMILES) | Bacterial Biotransformation [1] | Bacterial Biotransformation [2] | Bacterial Biotransformation [3] | Bacterial Biotransformation [4] | Bacterial Biotransformation [5] | Bacterial Biotransformation [6] | Bacterial Biotransformation [7] | Bacterial Biotransformation [8] | Bacterial Biotransformation [9] | Bacterial Biotransformation [10] | Bacterial Biotransformation [11] | Bacterial Biotransformation [12] | Bacterial Biotransformation [13] | Bacterial Biotransformation [14] | Bacterial Biotransformation [15] | Bacterial Biotransformation [16] | Bacterial Biotransformation [17] | Bacterial Biotransformation [18] | Bacterial Biotransformation [19] | Bacterial Biotransformation [20]
1 | CC(C)(C(=O)O)c1ccc(C(O)CCCN2CCC(C(O)(c3ccccc3)c3ccccc3)CC2)cc1 (stereo not given) [FEXOFENADINE] | Compound NOT metabolized | Compound NOT metabolized | Compound NOT metabolized | Compound NOT metabolized | Compound NOT metabolized | Compound NOT metabolized | Compound NOT metabolized | Compound NOT metabolized | Compound NOT metabolized | Compound NOT metabolized | Compound NOT metabolized | Compound NOT metabolized | Compound NOT metabolized | Compound metabolized | Compound NOT metabolized | Compound NOT metabolized | Compound NOT metabolized | Compound NOT metabolized | Compound NOT metabolized | Compound NOT metabolized
2 | CC(O)(CS(=O)(=O)c1ccc(F)cc1)C(=O)Nc1ccc(C#N)c(C(F)(F)F)c1 (stereo not given) [BICALUTAMIDE] | Compound NOT metabolized | Compound NOT metabolized | Compound NOT metabolized | Compound NOT metabolized | Compound NOT metabolized | Compound NOT metabolized | Compound NOT metabolized | Compound NOT metabolized | Compound NOT metabolized | Compound NOT metabolized | Compound NOT metabolized | Compound NOT metabolized | Compound NOT metabolized | Compound NOT metabolized | Compound NOT metabolized | Compound NOT metabolized | Compound NOT metabolized | Compound NOT metabolized | Compound NOT metabolized | Compound NOT metabolized
3 | C[C@@H]1C[C@H]2[C@@H]3CCC4=CC(=O)C=C[C@]4(C)[C@@]3(F)[C@@H](O)C[C@]2(C)[C@@]1(O)C(=O)CO [DEXAMETHASONE] | Compound NOT metabolized | Compound NOT metabolized | Compound metabolized | Compound NOT metabolized | Compound NOT metabolized | Compound NOT metabolized | Compound NOT metabolized | Compound NOT metabolized | Compound NOT metabolized | Compound NOT metabolized | Compound metabolized | Compound NOT metabolized | Compound NOT metabolized | Compound metabolized | Compound NOT metabolized | Compound NOT metabolized | Compound NOT metabolized | Compound metabolized | Compound NOT metabolized | Compound metabolized
4 | COc1ccc2c(c1OC)C(=O)O[C@@H]2[C@H]1c2c(cc3c(c2OC)OCO3)CCN1C [NOSCAPINE] | Compound NOT metabolized | Compound NOT metabolized | Compound NOT metabolized | Compound metabolized | Compound NOT metabolized | Compound metabolized | Compound NOT metabolized | Compound NOT metabolized | Compound metabolized | Compound metabolized | Compound metabolized | Compound metabolized | Compound NOT metabolized | Compound metabolized | Compound metabolized | Compound metabolized | Compound NOT metabolized | Compound NOT metabolized | Compound NOT metabolized | Compound metabolized
5 | Nc1nc2ccc(OC(F)(F)F)cc2s1 [RILUZOLE] | Compound NOT metabolized | Compound metabolized | Compound metabolized | Compound metabolized | Compound metabolized | Compound metabolized | Compound NOT metabolized | Compound metabolized | Compound NOT metabolized | Compound metabolized | Compound metabolized | Compound NOT metabolized | Compound metabolized | Compound metabolized | Compound metabolized | Compound NOT metabolized | Compound metabolized | Compound NOT metabolized | Compound metabolized | Compound metabolized
6 | CCCc1nc2c(C)cc(-c3nc4ccccc4n3C)cc2n1Cc1ccc(-c2ccccc2C(=O)O)cc1 | Compound metabolized | Compound NOT metabolized | Compound metabolized | Compound metabolized | Compound metabolized | Compound metabolized | Compound metabolized | Compound metabolized | Compound metabolized | Compound metabolized | Compound metabolized | Compound metabolized | Compound metabolized | Compound metabolized | Compound metabolized | Compound metabolized | Compound metabolized | Compound metabolized | Compound metabolized | Compound metabolized
7 | CC(C)NCC(O)c1ccc(NS(C)(=O)=O)cc1 (stereo not given) [SOTALOL] | Compound NOT metabolized | Compound NOT metabolized | Compound NOT metabolized | Compound NOT metabolized | Compound NOT metabolized | Compound NOT metabolized | Compound NOT metabolized | Compound NOT metabolized | Compound NOT metabolized | Compound metabolized | Compound NOT metabolized | Compound NOT metabolized | Compound NOT metabolized | Compound NOT metabolized | Compound NOT metabolized | Compound NOT metabolized | Compound NOT metabolized | Compound NOT metabolized | Compound NOT metabolized | Compound NOT metabolized
8 | Cc1ccccc1N1C(=O)c2cc(S(N)(=O)=O)c(Cl)cc2NC1C (stereo not given) [METOLAZONE] | Compound NOT metabolized | Compound NOT metabolized | Compound NOT metabolized | Compound metabolized | Compound NOT metabolized | Compound NOT metabolized | Compound metabolized | Compound NOT metabolized | Compound metabolized | Compound NOT metabolized | Compound NOT metabolized | Compound NOT metabolized | Compound metabolized | Compound NOT metabolized | Compound NOT metabolized | Compound NOT metabolized | Compound NOT metabolized | Compound NOT metabolized | Compound NOT metabolized | Compound NOT metabolized
